Experimental data taken from US10894798B2, “Substituted dihydropyrrolopyrazole derivative” (UBE INDUSTRIES, LTD., priority 2015, dated 2021).

How the values were obtained:
PLK1 = molecular target: T1, PLK1 (Homo sapiens, UniProt P53350); test: PLK1 enzyme (polo-like kinase) inhibition test; type: biochemical; conditions: [γ-33P]ATP, casein substrate; Ki=IC50/(1+S/Km); read-out: Ki value of PLK1 inhibitory activity
T1 construct: purchased Carna Biosciences, Inc. 05-157
Procedure, shortened: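 Recombinant PLK1 phosphorylates casein with [γ-^33P]ATP in MOPS buffer (pH 7.0) containing DTT and magnesium acetate, 20 min at 30° C. Reaction stopped with TCA; washed precipitate counted by liquid scintillation. IC50 for inhibition of ^33P incorporation into casein, converted to Ki via Ki=IC50/(1+S/Km).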

[1] = system: human large intestine cancer cell line (HCT-116); test: Human large intestine cancer (HCT-116) cell growth inhibition test; type: cell-based; conditions: HCT-116, 72 h, culture for 3 days, sulforhodamine B, read-out: GI50 value, HCT-116 cell growth inhibition
Procedure, shortened: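 HCT-116 cells were seeded at 0.5 to 2.0×10^3 cells/well in McCoy's 5A with 10% FBS and dosed with compound at 0.1% final DMSO after overnight culture. Growth was measured by sulforhodamine B absorbance after 3 days. GI50 was calculated from the inhibition rate at each concentration.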

CDK7 = molecular target: T2, CDK7 (Homo sapiens, UniProt P50613); test: CDK7 enzyme inhibition test; type: biochemical; conditions: [γ-33P]ATP, MBP substrate, 60 min preincubation at 25°C; Ki=IC50/(1+S/Km); read-out: Ki value of CDK7 inhibitory activity
T2 construct: purchased Carna Biosciences, Inc. 04-108
T2 sequence (P50613 whole entry): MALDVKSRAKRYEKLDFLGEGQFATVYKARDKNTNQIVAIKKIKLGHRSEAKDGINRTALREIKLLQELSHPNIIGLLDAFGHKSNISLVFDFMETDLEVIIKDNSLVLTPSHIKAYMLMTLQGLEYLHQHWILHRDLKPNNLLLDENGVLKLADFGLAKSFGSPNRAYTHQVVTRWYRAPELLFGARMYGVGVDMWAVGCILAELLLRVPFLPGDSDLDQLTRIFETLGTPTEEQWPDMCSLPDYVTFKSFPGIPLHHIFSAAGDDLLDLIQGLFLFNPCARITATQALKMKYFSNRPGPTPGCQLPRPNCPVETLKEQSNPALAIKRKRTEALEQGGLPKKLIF
T2 sequence (P51946 whole entry partner): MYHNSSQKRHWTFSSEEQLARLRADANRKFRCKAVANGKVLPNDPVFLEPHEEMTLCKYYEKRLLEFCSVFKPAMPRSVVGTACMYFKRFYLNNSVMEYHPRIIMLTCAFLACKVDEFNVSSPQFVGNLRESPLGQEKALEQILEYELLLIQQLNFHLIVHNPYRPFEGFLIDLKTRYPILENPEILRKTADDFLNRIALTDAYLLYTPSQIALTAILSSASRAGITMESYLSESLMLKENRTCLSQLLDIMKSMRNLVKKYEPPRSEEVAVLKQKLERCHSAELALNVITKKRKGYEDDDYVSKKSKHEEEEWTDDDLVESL
T2 sequence (P51948 whole entry partner): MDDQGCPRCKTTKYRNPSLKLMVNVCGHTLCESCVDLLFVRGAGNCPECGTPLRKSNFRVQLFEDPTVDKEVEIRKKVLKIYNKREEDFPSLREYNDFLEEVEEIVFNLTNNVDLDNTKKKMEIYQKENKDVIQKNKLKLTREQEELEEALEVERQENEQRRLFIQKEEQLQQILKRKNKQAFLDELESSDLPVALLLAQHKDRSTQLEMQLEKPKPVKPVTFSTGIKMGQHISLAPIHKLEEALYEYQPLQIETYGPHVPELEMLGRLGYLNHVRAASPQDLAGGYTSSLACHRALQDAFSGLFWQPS
Procedure, shortened: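 Commercial human CDK7 with myelin basic protein substrate in HEPES pH 7.4 buffer with DTT, Triton X-100, MgCl2; compound preincubated 60 min at 25° C, then reaction run 20 min at 30° C after adding [γ-^33P]ATP (500 μM solution). TCA-precipitated ^33P-MBP counted by scintillation; IC50 converted to Ki via Ki=IC50/(1+S/Km).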

[2] = system: human large intestine cancer cell (HCT 116) tumor; test: Tumor growth inhibition test in HCT 116-subcutaneously transplanted nude mouse; type: in vivo; conditions: dose of 100 mg/kg, repeated oral administration, HCT-116 in female BALB nude mice, control group = 100%, read-out: rate of suppression of tumor volume
Experimental: A human large intestine cancer cell line (HCT-116) was cultured in a McCoy's 5A medium containing 10% FBS and 1% penicillin/streptomycin/amphotericin B and adjusted to 1.0×10^8 cells/mL with PBS or Hanks solution (HBSS(−)). The prepared cell suspension was subcutaneously injected at 0.1 mL/mouse to the right abdomens of female BALB nude mice (supplied by Charles River Laboratories Japan, Inc.). After rearing for a certain period, the long diameter (mm) and short diameter (mm) of tumor were measured with electronic calipers, and the tumor volume was calculated according to the following expression: Tumor volume (mm^3)=(Long diameter)×(Short diameter)×(Short diameter)×0.5
Individuals whose tumor volume was within the range of 50 to 200 mm^3 were selected and grouped such that the tumor volume was almost equivalent, then a test compound or only a solvent was orally administered in a repeated manner, and the body weights and tumor volume were measured. A test compound was suspended in a 0.5 w/v % aqueous methylcellulose solution (0.5% MC) (manufactured by Wako Pure Chemical Industries, Ltd.) and orally administered at 10 mL/kg in a repeated manner. When the tumor volume of the control group was defined as 100%, the rate of suppression of tumor volume (%) at each dose of the test compound was calculated.

CDK2 = molecular target: T3, CDK2 (Homo sapiens, UniProt P24941); test: CDK2 enzyme inhibition test; type: biochemical; conditions: [γ-33P]ATP, MBP substrate; Ki=IC50/(1+S/Km); read-out: Ki value of CDK2 inhibitory activity
T3 construct: purchased Invitrogen Corp. PV3267
Procedure, shortened: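 Commercial CDK2 phosphorylated MBP with [γ-33P]ATP (500 μM solution before mixing) in HEPES pH 7.4 buffer with DTT, Triton X-100 and MgCl2 for 20 min at 30 °C. TCA-precipitated 33P-MBP was counted by scintillation to give the IC50. Ki = IC50/(1+S/Km), with S the ATP concentration in the reaction.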

T1 sequence (P53350 whole entry): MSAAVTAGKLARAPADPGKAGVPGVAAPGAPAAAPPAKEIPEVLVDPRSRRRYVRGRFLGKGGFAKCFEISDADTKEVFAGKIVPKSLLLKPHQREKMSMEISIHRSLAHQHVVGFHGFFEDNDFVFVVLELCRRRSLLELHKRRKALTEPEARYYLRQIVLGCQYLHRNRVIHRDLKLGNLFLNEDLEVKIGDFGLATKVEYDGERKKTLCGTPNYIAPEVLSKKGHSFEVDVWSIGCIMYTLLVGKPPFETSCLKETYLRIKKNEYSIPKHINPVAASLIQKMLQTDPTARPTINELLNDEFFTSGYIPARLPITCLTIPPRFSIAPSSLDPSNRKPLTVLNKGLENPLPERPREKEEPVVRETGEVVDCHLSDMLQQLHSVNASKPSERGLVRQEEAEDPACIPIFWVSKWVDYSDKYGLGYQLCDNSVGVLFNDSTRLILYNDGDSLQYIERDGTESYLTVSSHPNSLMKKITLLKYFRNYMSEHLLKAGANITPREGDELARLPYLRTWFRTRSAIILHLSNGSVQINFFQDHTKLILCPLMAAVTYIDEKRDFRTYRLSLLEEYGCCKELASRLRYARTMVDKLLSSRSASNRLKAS

Row | SMILES | Ki (PLK1) [µM] | GI50 [1] [µM] | Ki (CDK7) [µM] | Ki (CDK2) [µM] | inhibition in vivo at 100 mg/kg [2] [%]
1 | CC1(C)c2[nH]nc(NC(=O)C3([Si](C)(C)C)CCC3)c2CN1C(=O)Nc1c(Cl)cccc1C1CC1 [IV-231, N-(2-Chloro-6-cyclopropylphenyl)-6,6-dimethyl-3-[1-(trimethylsilyl)cyclobutanecarboxamido]-4,6-dihydropyrrolo[3,4-c]pyrazole-5(1H)-carboxamide] | ≥ 5 | ≤ 0.1 | ≤ 0.05 | ≥ 1 | 
2 | CC1(C)c2[nH]nc(NC(=O)C3([Si](C)(C)C)CC3)c2CN1C(=O)Nc1c(Cl)cccc1Cl [III-199, N-(2,6-Dichlorophenyl)-6,6-dimethyl-3-[1-(trimethylsilyl)cyclopropanecarboxamido]-4,6-dihydropyrrolo[3,4-c]pyrazole-5(1H)-carboxamide] | ≥ 5 | ≤ 0.1 | ≤ 0.05 | ≥ 1 | 
3 | CC1(C)c2[nH]nc(NC(=O)C3([Si](C)(C)C)CCC3)c2CN1C(=O)Nc1ccccc1C1CC1 [IV-39, N-(2-Cyclopropylphenyl)-6,6-dimethyl-3-[1-(trimethylsilyl)cyclobutanecarboxamido]-4,6-dihydropyrrolo[3,4-c]pyrazole-5(1H)-carboxamide] | ≥ 5 | ≤ 0.1 | ≤ 0.05 | ≥ 1 | 
4 | CC1(C)c2[nH]nc(NC(=O)C3([Si](C)(C)C)CCC3)c2CN1C(=O)Nc1ccccc1OC(F)F [IV-87, N-[2-(Difluoromethoxy)phenyl]-6,6-dimethyl-3-[1-(trimethylsilyl)cyclobutanecarboxamido]-4,6-dihydropyrrolo[3,4-c]pyrazole-5(1H)-carboxamide] | ≥ 5 | ≤ 0.1 | ≤ 0.05 | ≥ 1 | 
5 | CC(F)(F)c1ccccc1NC(=O)N1Cc2c(NC(=O)C3([Si](C)(C)C)CCC3)n[nH]c2C1(C)C [IV-45, N-[2-(1,1-Difluoroethyl)phenyl]-6,6-dimethyl-3-[1-(trimethylsilyl)cyclobutanecarboxamido]-4,6-dihydropyrrolo[3,4-c]pyrazole-5(1H)-carboxamide] | ≥ 5 | ≤ 0.1 | ≤ 0.05 | ≥ 1 | 
6 | Cc1cc2ccc(F)c(NC(=O)N3Cc4c(NC(=O)C5([Si](C)(C)C)CCC5)n[nH]c4C3(C)C)c2o1 [IV-1059, N-(6-Fluoro-2-methylbenzofuran-7-yl)-6,6-dimethyl-3-[1-(trimethylsilyl)cyclobutanecarboxamido]-4,6-dihydropyrrolo[3,4-c]pyrazole-5(1H)-carboxamide] | ≥ 5 | ≤ 0.1 | ≤ 0.05 | ≥ 1 | 
7 | CC1(C)c2[nH]nc(NC(=O)C3([Si](C)(C)C)CCC3)c2CN1C(=O)Nc1c(F)ccc2c1OCC2 [IV-997, N-(6-Fluoro-2,3-dihydrobenzofuran-7-yl)-6,6-dimethyl-3-[1-(trimethylsilyl)cyclobutanecarboxamido]-4,6-dihydropyrrolo[3,4-c]pyrazole-5(1H)-carboxamide] | ≥ 5 | ≤ 0.1 | ≤ 0.05 | ≥ 1 | 
8 | COc1cc(F)c(NC(=O)N2Cc3c(NC(=O)C4([Si](C)(C)C)CCC4)n[nH]c3C2(C)C)c(F)c1 [IV-615, N-(2,6-Difluoro-4-methoxyphenyl)-6,6-dimethyl-3-[1-(trimethylsilyl)cyclobutanecarboxamido]-4,6-dihydropyrrolo[3,4-c]pyrazole-5(1H)-carboxamide] | ≥ 5 | ≤ 0.1 | ≤ 0.05 | ≥ 1 | 

Further lines, with some results ahead:

Row | Ki (PLK1) [µM] | GI50 [1] [µM] | Ki (CDK7) [µM] | Ki (CDK2) [µM] | SMILES | inhibition in vivo at 100 mg/kg [2] [%]
9 | ≥ 5 | ≤ 0.1 | ≤ 0.05 |  | CC1(C)c2[nH]nc(NC(=O)C3([Si](C)(C)C)CCC3)c2CN1C(=O)Nc1c(F)cccc1Br [IV-121, N-(2-Bromo-6-fluorophenyl)-6,6-dimethyl-3-[1-(trimethylsilyl)cyclobutanecarboxamido]-4,6-dihydropyrrolo[3,4-c]pyrazole-5 (1H)-carboxamide] | ≥ 50
10 |  | ≤ 0.1 | ≤ 0.05 | ≥ 1 | CC1(C)c2[nH]nc(NC(=O)C3([Si](C)(C)C)CCC3)c2CN1C(=O)Nc1ccccc1 [IV-1, 6,6-Dimethyl-N-phenyl-3-[1-(trimethylsilyl)cyclobutanecarboxamido]-4,6-dihydropyrrolo[3,4-c]pyrazole-5(1H)-carboxamide] | ≥ 50
11 | ≥ 5 | ≤ 0.1 | ≤ 0.05 | ≥ 1 | Cc1ccc(F)c(Cl)c1NC(=O)N1Cc2c(NC(=O)C3([Si](C)(C)C)CCC3)n[nH]c2C1(C)C [IV-747, N-(2-Chloro-3-fluoro-6-methylphenyl)-6,6-dimethyl-3-[1-(trimethylsilyl)cyclobutanecarboxamido]-4,6-dihydropyrrolo[3,4-c]pyrazole-5(1H)-carboxamide] | 
12 | ≥ 5 | ≤ 0.1 | ≤ 0.05 | ≥ 1 | Cc1cccc(C)c1NC(=O)N1Cc2c(NC(=O)C3([Si](C)(C)C)CCC3)n[nH]c2C1(C)C [IV-381, N-(2,6-Dimethylphenyl)-6,6-dimethyl-3-[1-(trimethylsilyl)cyclobutanecarboxamido]-4,6-dihydropyrrolo[3,4-c]pyrazole-5(1H)-carboxamide] | 
